Reference: patent US8153627B2, “Quinazoline linked pyrrolo[2,1-C][1, 4]benzodiazepine hybrids as potential anticancer agents and process for the preparation thereof” (Council of Scientific & Industrial Research, priority 2008, dated 2012)

Tests used:
UACC-257 = experiment: Cytotoxicity SRB assay, UACC-257; format: cell-based, human; conditions: Melanoma UACC-257, 48 h exposure
Method: (§1) 5a, 5c and 5d was evaluated for in vitro anticancer activity against sixty human tumor cells derived from nine cancer types leukemia, non-small-cell lung, colon, CNS, melanoma, ovarian, prostate, and breast cancer) as shown in (Table 1 and 2). For the compound, dose response curves for each cell line were measured at a minimum of five concentrations at 10 fold dilutions. A protocol of 48 h continuous drug exposure was used and a sulforhodamine B (SRB) protein assay was used to estimate cell viability or growth. The concentration causing 50% cell growth inhibition (GI50), total cell growth inhibition (TGI 0% growth) and 50% cell death (LC50, −50% growth) compared with the control was calculated.

NCI-H522 = experiment: Cytotoxicity SRB assay, NCI-H522; format: cell-based, human; conditions: Non-small cell lung NCI-H522, 48 h exposure
Method: as §1

CAKI-1 = experiment: Cytotoxicity SRB assay, CAKI-1; format: cell-based, human; conditions: Renal CAKI-1, 48 h exposure
Method: as §1

[1] = test system: sixty human tumor cells derived from nine cancer types; experiment: NCI sixty human tumor cell line screen (SRB), all lines / mean graph midpoints; format: cell-based; conditions: for Log10 LC50 mean graph midpoint (MG_MID): 50% cell death; for Log10 LC50 mean graph midpoint (MG_MID) / Log10 GI50 mean graph midpoint (MG_MID) / Log10 TGI mean graph midpoint (MG_MID): human tumor cell lines, 48 h exposure, SRB; for Log10 TGI mean graph midpoint (MG_MID): total cell growth inhibition
Method: as §1
The mean graph mid points of log10 TGI and log10 LC50 have shown similar pattern to the log10 GI50 mean graph mid points.

SK-MEL-5 = experiment: Cytotoxicity SRB assay, SK-MEL-5; format: cell-based, human; conditions: Melanoma SK-MEL-5, 48 h exposure
Method: as §1

RPMI-8226 = experiment: Cytotoxicity SRB assay, RPMI-8226; format: cell-based, human; conditions: Leukemia RPMI-8226, 48 h exposure
Method: as §1

786-0 = experiment: Cytotoxicity SRB assay, 786-0; format: cell-based, human; conditions: Renal 786-0, 48 h exposure
Method: as §1

TK-10 = experiment: Cytotoxicity SRB assay, TK-10; format: cell-based, human; conditions: Renal TK-10, 48 h exposure
Method: as §1

NCI-H226 = experiment: Cytotoxicity SRB assay, NCI-H226; format: cell-based, human; conditions: Non-small cell lung NCI-H226, 48 h exposure
Method: as §1

SF-539 = experiment: Cytotoxicity SRB assay, SF-539; format: cell-based, human; conditions: CNS SF-539, 48 h exposure
Method: as §1

LOX IMVI = experiment: Cytotoxicity SRB assay, LOX IMVI; format: cell-based, human; conditions: Melanoma LOX IMVI, 48 h exposure
Method: as §1

U251 = experiment: Cytotoxicity SRB assay, U251; format: cell-based, human; conditions: CNS U251, 48 h exposure
Method: as §1

NCI/ADR-RES = experiment: Cytotoxicity SRB assay, NCI/ADR-RES; format: cell-based, human; conditions: Breast NCI/ADR-RES, 48 h exposure
Method: as §1

NCI-H23 = experiment: Cytotoxicity SRB assay, NCI-H23; format: cell-based, human; conditions: Non-small cell lung NCI-H23, 48 h exposure
Method: as §1

SW-620 = experiment: Cytotoxicity SRB assay, SW-620; format: cell-based, human; conditions: Colon SW-620, 48 h exposure
Method: as §1

HCT-116 = experiment: Cytotoxicity SRB assay, HCT-116; format: cell-based, human; conditions: Colon HCT-116, 48 h exposure
Method: as §1

MDA-MB-231/ATCC = experiment: Cytotoxicity SRB assay, MDA-MB-231/ATCC; format: cell-based, human; conditions: Breast MDA-MB-231/ATCC, 48 h exposure
Method: as §1

CCRF-CEM = experiment: Cytotoxicity SRB assay, CCRF-CEM; format: cell-based, human; conditions: Leukemia CCRF-CEM, 48 h exposure
Method: as §1

MALME-3M = experiment: Cytotoxicity SRB assay, MALME-3M; format: cell-based, human; conditions: Melanoma MALME-3M, 48 h exposure
Method: as §1

HCT-15 = experiment: Cytotoxicity SRB assay, HCT-15; format: cell-based, human; conditions: Colon HCT-15, 48 h exposure
Method: as §1

M14 = experiment: Cytotoxicity SRB assay, M14; format: cell-based, human; conditions: Melanoma M14, 48 h exposure
Method: as §1

UACC-62 = experiment: Cytotoxicity SRB assay, UACC-62; format: cell-based, human; conditions: Melanoma UACC-62, 48 h exposure
Method: as §1

A498 = experiment: Cytotoxicity SRB assay, A498; format: cell-based, human; conditions: Renal A498, 48 h exposure
Method: as §1

[2] = test system: duplex-form calf thymus DNA (CT-DNA); experiment: Thermal denaturation studies with calf thymus DNA; format: binding; conditions: for Change of DNA melting (ΔTm) over incubation time: 0 hr, 18 hr and 36 hr at 37° C.; for ΔTμ (° C.) after incubation at 37° C. for 0 h / ΔTμ (° C.) after incubation at 37° C. for 18 h: [PBD]:[DNA] molar ratio 1:5, CT-DNA 100 μM, ligand 20 μM, pH 7.00
Method: Compounds were subjected to thermal denaturation studies with duplex-form calf thymus DNA (CT-DNA) using an adaptation of a reported procedure. Working solutions in aqueous buffer (10 mM NaH2PO4/Na2HPO4, 1 mM Na2EDTA, pH 7.00+0.01) containing CT-DNA (100 μm in phosphate) and the PBD (20 μm) were prepared by addition of concentrated PBD solutions in DMSO to obtain a fixed [PBD]/[DNA] molar ratio of 1:5. The DNA-PBD solutions were incubated at 37° C. for 0, 18, and 36 h prior to analysis. Samples were monitored at 260 nm using a Beckman DU-7400 spectrophotometer fitted with high performance temperature controller, and heating was applied at 1° C. min^−1 in the 40-90° C. range. DNA helix coil transition temperatures (Tm) were obtained from the maxima in the (dA260)/dT derivative plots. Results are given as the mean±standard deviation from three determinations and are corrected for the effects of DMSO co-solvent using a linear correction term. Drug-induced alterations in DNA melting behaviour are given by: ΔTm=Tm(DNA+PBD)−Tm (DNA alone), where the Tm value for the PBD-free CT-DNA is 69.0±0.01.
The DNA binding activity for these novel C8-linked quinazoline-PBD hybrids has been examined by thermal denaturation studies using calf thymus (CT) DNA. […] Data for 5a-d and DC-81 are included in Table 4 for comparison.

OVCAR-3 = experiment: Cytotoxicity SRB assay, OVCAR-3; format: cell-based, human; conditions: Ovarian OVCAR-3, 48 h exposure
Method: as §1

HL-60 (TB) = experiment: Cytotoxicity SRB assay, HL-60 (TB); format: cell-based, human; conditions: Leukemia HL-60 (TB), 48 h exposure
Method: as §1

UO-31 = experiment: Cytotoxicity SRB assay, UO-31; format: cell-based, human; conditions: Renal UO-31, 48 h exposure
Method: as §1

ACHN = experiment: Cytotoxicity SRB assay, ACHN; format: cell-based, human; conditions: Renal ACHN, 48 h exposure
Method: as §1

| SMILES | GI50 (UACC-257) | GI50 (NCI-H522) | GI50 (CAKI-1) | Log10 LC50 mean graph midpoint (MG_MID) [1] | Log10 GI50 mean graph midpoint (MG_MID) [1] | Log10 TGI mean graph midpoint (MG_MID) [1] | GI50 (SK-MEL-5) | GI50 (RPMI-8226) | GI50 (786-0) | GI50 (TK-10) | GI50 (NCI-H226) | GI50 (SF-539) | GI50 (LOX IMVI) | GI50 (U251) | GI50 (NCI/ADR-RES) | GI50 (NCI-H23) | GI50 (SW-620) | GI50 (HCT-116) | ΔTμ (° C.) after incubation at 37° C. for 0 h [2] | ΔTμ (° C.) after incubation at 37° C. for 18 h [2] | further results |
| --- | --- | --- | --- | --- | --- | --- | --- | --- | --- | --- | --- | --- | --- | --- | --- | --- | --- | --- | --- | --- | --- |
| COc1cc2c(cc1OCCCN1CCN(c3ncnc4ccccc34)CC1)N=C[C@@H]1CCCN1C2=O [Compound 5a] | 70.9 µM | 10.4 µM | 13.6 µM | −4.99 | −7.68 | −6.66 | 10 µM | 10 µM | 11.8 µM | 16.6 µM | 10 µM | 12.6 µM | 10 µM | 10 µM | 13.4 µM | 13.9 µM | 11.7 µM | 11.9 µM | 9.2 °C | 10.4 °C | GI50 ([1]; sixty cell lines in nine cell panels, read-out: GI50 against sixty cell lines in nine cell panels): < 20 nM; GI50 (MDA-MB-231/ATCC): 11.6 µM; GI50 (CCRF-CEM): 12 µM; GI50 (MALME-3M): 18.2 µM; GI50 (HCT-15): 27.5 µM; GI50 (M14): 10.1 µM; GI50 (UACC-62): 10 µM; GI50 (A498): 16.1 µM; Change of DNA melting (ΔTm) over incubation time [2]: gradually increased; GI50 (OVCAR-3): 10 µM; GI50 (HL-60 (TB)): 13 µM; GI50 (UO-31): 13.2 µM; GI50 (ACHN): 43.4 µM |
| COc1cc2c(cc1OCCCCN1CCN(c3ncnc4ccccc34)CC1)N=C[C@@H]1CCCN1C2=O [Compound 5b] | – | – | – | – | – | – | – | – | – | – | – | – | – | – | – | – | – | – | 9.7 °C | 10.9 °C | – |
| COc1cc2c(cc1OCCCCCN1CCN(c3ncnc4ccccc34)CC1)N=C[C@@H]1CCCN1C2=O [Compound 5c] | 22.9 µM | 65.3 µM | 25.8 µM | −4.19 | −5.68 | −4.86 | 20.9 µM | 45 µM | 18.4 µM | 38.2 µM | 17.8 µM | 30.3 µM | 18.2 µM | 15.8 µM | 17.7 µM | 15.8 µM | 17.6 µM | 21 µM | 10.3 °C | 11.8 °C | GI50 (MDA-MB-231/ATCC): 19.9 µM; GI50 (CCRF-CEM): 32.5 µM; GI50 (MALME-3M): 24.2 µM; GI50 (HCT-15): 29.7 µM; GI50 (M14): 14.5 µM; GI50 (UACC-62): 15.1 µM; GI50 (A498): 20.1 µM; Change of DNA melting (ΔTm) over incubation time [2]: gradually increased; GI50 (OVCAR-3): 24.9 µM; GI50 (HL-60 (TB)): 65.2 µM; GI50 (UO-31): 22.1 µM; GI50 (ACHN): 22 µM |
| COc1cc2c(cc1OCCCCCCN1CCN(c3ncnc4ccccc34)CC1)N=C[C@@H]1CCCN1C2=O [Compound 5d] | 15.9 µM | 18.3 µM | 12.9 µM | −4.96 | −6.49 | −5.85 | 23.3 µM | 16.8 µM | 14.9 µM | 31.4 µM | 18.4 µM | 33.7 µM | 15 µM | 19.8 µM | 18.7 µM | 22.5 µM | 25.9 µM | 14.6 µM | 10.6 °C | 12.2 °C | GI50 (MDA-MB-231/ATCC): 14.2 µM; GI50 (CCRF-CEM): 13.4 µM; GI50 (MALME-3M): 36.2 µM; GI50 (HCT-15): 18.4 µM; GI50 (M14): 18.8 µM; GI50 (UACC-62): 22.5 µM; GI50 (A498): 22 µM; Change of DNA melting (ΔTm) over incubation time [2]: gradually increased; GI50 (OVCAR-3): 26.3 µM; GI50 (HL-60 (TB)): 19.5 µM; GI50 (UO-31): 15.2 µM; GI50 (ACHN): 46.1 µM |
| COc1cc2c(cc1O)N=CC1CCCN1C2=O (centres unmarked) [DC-81, reference compound] | – | – | – | – | – | – | – | – | – | – | – | – | – | – | – | – | – | – | 0.3 °C | 0.7 °C | – |
